Experimental data published in the supplement of paper PMC11061612.

Columns and labels:
[1] = system: NCI-H841 (Small Cell Lung Carcinoma); experiment: Bliss excess, mean over the matrix (fraction); higher = more synergy
Procedure, shortened: (§1)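 Cell lines grown in DMEM/F12 or RPMI with 10% FBS were plated in 1536-well plates and held 24 hours at 37°C, 5% CO2 before 72 hours of exposure to two-drug dose matrices, with DMSO typically at 0.2%. CellTiter-Glo 2.0 luminescence gave viability, which was converted to inhibition. Vehicle wells were set to 0 and blank wells to 1. Combination Emax is the second-highest inhibition in the matrix, and Bliss excess is the observed combination effect minus the expected EA + EB − EA·EB, where EA and EB are the single-agent effects.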

NB13 (Neuroblastoma) = experiment: as above
Procedure, shortened: as §1

WM1552C (Melanoma) = experiment: as above
Procedure, shortened: as §1

[2] = system: JHU-022 (Oral Cavity Carcinoma); experiment: as above
Procedure, shortened: as §1

[3] = system: SW620 (Colorectal Carcinoma); experiment: as above
Procedure, shortened: as §1

769-P (Kidney Carcinoma) = experiment: as above
Procedure, shortened: as §1

[4] = system: NCI-H441 (Lung Adenocarcinoma); experiment: as above
Procedure, shortened: as §1

MKN1 (Gastric Carcinoma) [5] = experiment: as above
Procedure, shortened: as §1

[6] = system: MDA-MB-436 (Breast Carcinoma); experiment: as above
Procedure, shortened: as §1

[7] = system: LU-165 (Small Cell Lung Carcinoma); experiment: as above
Procedure, shortened: as §1

[8] = system: NCI-H841 (Small Cell Lung Carcinoma); experiment: combination Emax (second highest fraction inhibited in the dose matrix, 72 h); higher = more inhibition; extreme values may be limits of the assay
Procedure, shortened: as §1

MKN1 (Gastric Carcinoma) [9] = experiment: as above
Procedure, shortened: as §1
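For Bliss excess, mean over the matrix in this document: after 72 h of two-drug dosing.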

| SMILES | Bliss excess [1] | Bliss excess (NB13 (Neuroblastoma)) | Bliss excess (WM1552C (Melanoma)) | Bliss excess [2] | Bliss excess [3] | Bliss excess (769-P (Kidney Carcinoma)) | Bliss excess [4] | Bliss excess (MKN1 (Gastric Carcinoma) [5]) | Bliss excess [6] | Bliss excess [7] | combination Emax [8] | combination Emax (MKN1 (Gastric Carcinoma) [9]) |
| --- | --- | --- | --- | --- | --- | --- | --- | --- | --- | --- | --- | --- |
| C[C@@H]1COCCN1c1cc(C2([S@](C)(=N)=O)CC2)nc(-c2ccnc3[nH]ccc23)n1 [AZD6738] + C1CC(C1)(C(=O)[O-])C(=O)[O-].N.N.[Pt+2] [Carboplatin] (first compound max 10 µM, 7x7, partner max 10 µM) | -0.0587 | -0.0955 | -0.0299 | -0.0325 | -0.0461 | -0.0233 | -0.0436 | -0.0424 | -0.0038 | -0.0517 | 0.503 | 0.85 |
| CC1(C)CCC(CN2CCN(c3ccc(C(=O)NS(=O)(=O)c4ccc(NCC5CCOCC5)c([N+](=O)[O-])c4)c(Oc4cnc5[nH]ccc5c4)c3)CC2)=C(c2ccc(Cl)cc2)C1 [Venetoclax] + CS(=O)(=O)CCNCc1ccc(-c2ccc3ncnc(Nc4ccc(OCc5cccc(F)c5)c(Cl)c4)c3c2)o1 [Lapatinib] (first compound max 1 µM, 7x7, partner max 10 µM) | -0.0506 | -0.028 | -0.0328 | -0.0551 | -0.0409 | 0.0871 | -0.0292 | -0.0194 | -0.0222 | -0.0289 | 0.13 | 0.433 |
| Cc1nc(-c2cn3c(n2)-c2ccc(-c4cnn(C(C)(C)C(N)=O)c4)cc2OCC3)n(C(C)C)n1 [Taselisib] + O=C(Nc1ccc2[nH]nc(-c3ccncc3)c2c1)[C@@H]1CCN(CC(=O)N2CCN(c3ccc(-c4ncccn4)cc3)CC2)C1 [SCH772984] (first compound max 10 µM, 7x7, partner max 5 µM) | 0.0606 | 0.0664 | 0.0205 | -0.0001 | 0.0518 | 0.0852 | 0.0123 | 0.0698 | -0.0028 | -0.0073 | 0.439 | 0.838 |
| C[C@@H](Oc1cc(-c2cnn(C3CCNCC3)c2)cnc1N)c1c(Cl)ccc(F)c1Cl [Crizotinib] + Cn1cnc2c(F)c(Nc3ccc(Br)cc3Cl)c(C(=O)NOCCO)cc21 [Selumetinib] (first compound max 10 µM, 7x7, partner max 10 µM) | -0.0528 | -0.104 | -0.0338 | -0.0115 | 0.0065 | -0.0213 | 0.0148 | 0.0001 | -0.005 | -0.082 | 0.202 | 0.561 |
| Cc1c2c(nn1C)CSCc1cc(n(C)n1)CSc1cc(c3ccccc3c1)OCCCc1c(C(=O)O)n(C)c3c-2c(Cl)ccc13 [AZD5991] + CS(=O)(=O)CCNCc1ccc(-c2ccc3ncnc(Nc4ccc(OCc5cccc(F)c5)c(Cl)c4)c3c2)o1 [Lapatinib] (first compound max 1 µM, 7x7, partner max 10 µM) | -0.0161 | -0.0239 | 0.0199 | 0.0807 | -0.043 | 0.0329 | -0.0054 | -0.0016 | -0.0434 | -0.125 | 0.3 | 0.53 |
| O=C(c1cc(Cc2n[nH]c(=O)c3ccccc23)ccc1F)N1CCN(C(=O)C2CC2)CC1 [Olaparib] + CC1(C)CCC(CN2CCN(c3ccc(C(=O)NS(=O)(=O)c4ccc(NCC5CCOCC5)c([N+](=O)[O-])c4)c(Oc4cnc5[nH]ccc5c4)c3)CC2)=C(c2ccc(Cl)cc2)C1 [Venetoclax] (first compound max 10 µM, 7x7, partner max 1 µM) | -0.057 |  | -0.0325 | -0.0455 | -0.0533 | 0.0116 | -0.0407 | -0.0437 | -0.0518 | -0.0248 | 0.0548 | 0.122 |
| O=C(c1cc(Cc2n[nH]c(=O)c3ccccc23)ccc1F)N1CCN(C(=O)C2CC2)CC1 [Olaparib] + COc1nnc2ccc(N3CCC(c4ccc(OCCN5CCN(C)C(=O)[C@H]5C)cc4)CC3)nn12 [AZD5153] (first compound max 10 µM, 7x7, partner max 1 µM) | -0.0593 |  | -0.0553 | -0.0676 | -0.0506 | -0.0374 | -0.0779 | -0.0577 | -0.0247 | -0.0305 | 0.236 | 0.631 |
| CN(CCO)CC[C@H](CSc1ccccc1)Nc1ccc(S(=O)(=O)NC(=O)c2ccc(N3CCC([C@@H](O)c4ccccc4-c4ccc(Cl)cc4)CC3)cc2)cc1S(=O)(=O)C(F)(F)F [AZD4320] + CS(=O)(=O)CCNCc1ccc(-c2ccc3ncnc(Nc4ccc(OCc5cccc(F)c5)c(Cl)c4)c3c2)o1 [Lapatinib] (first compound max 1 µM, 7x7, partner max 10 µM) | -0.0037 | 0.0537 | 0.0285 | 0.0438 | -0.0116 | -0.0042 | -0.0156 | 0.046 | -0.0333 |  | 0.237 | 0.888 |
